Assay results reported in US9458200B2, “Method for producing intermediates for the production of novel macrocycles that are inhibitors of the proteasomic degradation of p27, such as argyrin and derivatives thereof, and uses of said macrocycles” (Gottfried Wilhelm Leibniz Universität Hannover, priority 2008, dated 2016).
Values after ≈ are worked out from the molar mass of the structure shown. Starred links: 1 amine or outer side, 2 acyl side, 3 side chain; linkers in the order of their positions; H or OH if unused. Non-standard residues stand in square brackets, D forms with d. Residues, ends and D or L forms follow the SMILES beside them. Trp(4-OMe) = COc1cccc2[nH]cc(C[C@H](N)C(=O)O)c12; X1 = O=C(c1csc([C@@H](CO)N[*:1])n1)[*:2]; Dha = C=C(N)C(=O)O; Sar = CNCC(=O)O

Assays:
[1] = test system: SW-480 (colon cancer); test: MIC (visual), serial dilution, SW-480 cells; type: cell-based; conditions: minimal concentration of a serial dilution exhibiting a visual effect
Excerpt: (§1) The following table summarizes the effects of […]-derivatives B and F on two cancer cell lines, H15 (cervix carcinoma) and SW-480 (colon cancer). In order to test the efficacy, a p27-GFP-clone was used. [table]

[2] = test system: H15 (cervix carcinoma); test: MIC (visual), serial dilution, H15 cells; type: cell-based; conditions: minimal concentration of a serial dilution exhibiting a visual effect
Excerpt: as §1

[3] = biological target: T1, erythrocyte-derived 20S proteasome, chymotrypsin-like activity (Homo sapiens, UniProt P20618+P28074); test: 20S-Proteasome-Test (manual), chymotrypsin-like substrate; type: biochemical
T1 construct: using erythrocyte-derived 20S proteasome; purchased Biomol International PW8720; host or cells: human erythrocytes
Experimental: (§2) Proteasome assays with purified 20S proteasome were performed as previously described (Lightcap, E. S. et al. Proteasome inhibition measurements: clinical application. Clin Chem 46, 673-83 (2000)) using erythrocyte-derived 20S proteasome (Biomol International,#LP PW8720) and fluorometric substrates Succ-LLVY-AMC, BZ-VGR-AMC and Z-Lle-AMC (Biomol International, LP PW9905) as probes according to the manufacturers instructions. Proteasome extraction from cells and tumor sections was done as previously described (Crawford, L. J. et al. Comparative selectivity and specificity of the proteasome inhibitors BzLLLCOCHO, PS-341, and MG-132. Cancer Res 66, 6379-86 (2006)). Briefly cells (MEF or MCF-7) or tissue sample homogenate (tumor sections) were re-suspended in 1 mL ATP/DTT lysis buffer (10 mmol/L Tris-HCl (pH7.8), 5 mmol/L ATP, 0.5 mmol/L DTT, 5 mmol/L MgCl2), and incubated on ice for 10 minutes, followed by sonication for 15 seconds. The lysates were centrifuged at 400×g for 10 min at 4° C., and the resulting supernatant containing proteasomes was stable at −80° C. with the addition of 20% glycerol for at least 1 month. Protein concentration of the samples was measured using a coomassie protein assay (Pierce, Rockford, Ill.).
(§3) Proteasome assays with purified 20S proteasome were performed as previously described (Lightcap et al., 2000) using erythrocyte-derived 20S proteasome (Biomol International,#LP PW8720) and fluorometric substrates Succ-LLVY-AMC, BZ-VGR-AMC and Z-Lle-AMC (Biomol International, LP PW9905). Proteasome extraction from cells and tumor sections was done as previously described (Crawford et al., 2006). For proteasome extraction from whole blood, frozen whole blood cell pellets were thawed and lysed in 2-3 pellet volumes cold lysis buffer (5 mM EDTA, pH 8.0). […] The rate of cleavage of fluorogenic peptide substrates was determined by monitoring the fluorescence of released aminomethylcoumarin using a Victor 1420 Multilabel counter (Wallac) at an excitation wavelength of 395 nm and emission wavelength of 460 nm over a period of 60 min. […]

[4] = test system: SW-480 (colon cancer cell line); test: MTT-test, proliferation of SW-480; type: cell-based
Experimental: MTT assays were done as previously described (Sasse, F. et al. Argyrins, immunosuppressive cyclic peptides from myxobacteria. I. Production, isolation, physico-chemical and biological properties. J Antibiot (Tokyo) 55, 543-51 (2002)). TUNEL staining of tissue sections was performed on 10 micrometer sections which were deparafinised and treated as recommended by the manufacturer. (In Situ Cell Death Detection Kit, Fluorescein; ROCHE, Cat #11 684 795 910). Flow cytometric analysis of cultured cells was done using a Becton Dickinson fluorescence cytometer as previously described (Malek, N.P. et al. A mouse knock-in model exposes sequential proteolytic pathways that regulate p27^Kip1 in G1 and S phase. Nature 413, 323-7 (2001)). Analysis of the distribution of cells in the cell cycle and the sub-G1 fraction was done using Cell Quest software. A histone-associated-DNA-fragments ELISA was used to determine the number of apoptotic cells according to manufacturers instructions (Roche #11 774425001).

[5] = test system: H15GFP-p27 clone (HeLa-cell line; cervix-carcinoma); test: GFP-fluorescence per FACS of p27-GFP clone H15GFP-p27; type: cell-based; conditions: GFP-fluorescence per FACS after 24 h incubation, 500 ng/ml
Excerpt: as §1

[6] = biological target: T2, erythrocyte-derived 20S proteasome, caspase-like activity (Homo sapiens, UniProt P28072+Q99436); test: 20S-Proteasome-Test (manual), caspase-like substrate; type: biochemical
T2 construct: using erythrocyte-derived 20S proteasome; purchased Biomol International PW8720; host or cells: human erythrocytes
Experimental: as §2, §3

[7] = biological target: T3, erythrocyte-derived 20S proteasome, trypsin-like activity (Homo sapiens, UniProt P49720+Q99436); test: 20S-Proteasome-Test (manual), trypsin-like substrate; type: biochemical
T3 construct: using erythrocyte-derived 20S proteasome; purchased Biomol International PW8720; host or cells: human erythrocytes
Experimental: as §2, §3

[8] = test system: T4, 20S proteasome; test: Proteasome-assay, overall comparison in words (all three subunits); type: biochemical, human; conditions: compared with argyrin F
T4 construct: using erythrocyte-derived 20S proteasome; purchased Biomol International PW8720; host or cells: human erythrocytes
Experimental: as §2
Proteasome assays with purified 20S proteasome were performed as previously described (Lightcap et al., 2000) using erythrocyte-derived 20S proteasome (Biomol International,#LP PW8720) and fluorometric substrates Succ-LLVY-AMC, BZ-VGR-AMC and Z-Lle-AMC (Biomol International, LP PW9905). Proteasome extraction from cells and tumor sections was done as previously described (Crawford et al., 2006). For proteasome extraction from whole blood, frozen whole blood cell pellets were thawed and lysed in 2-3 pellet volumes cold lysis buffer (5 mM EDTA, pH 8.0). Lysates were spun down at 4° C. and the supernatant was transferred to a fresh tube. 5 μl was taken for the determination of protein concentration using a coomassie protein assay (Pierce, Rockford, Ill.). Proteasome assays using proteasome purified from cells or tissues were carried out in a 100 μL reaction volume containing 20 μg proteasome extract, 50 mmol/L EDTA and 60 μmol/L fluorogenic substrate (chymotrypsin-like(CT-L), trypsin-like(T-L) or caspase-like (C-L)) in ATP/DTT lysis buffer at 37° C. The assay buffer was supplemented with a final concentration of 0.05% SDS for the evalution of the chymotrypsin-like activity and caspase-like activity. The rate of cleavage of fluorogenic peptide substrates was determined by monitoring the fluorescence of released aminomethylcoumarin using a Victor 1420 Multilabel counter (Wallac) at an excitation wavelength of 395 nm and emission wavelength of 460 nm over a period of 60 min.

Row | Molecule | MIC (visual) SW-480 [1] | MIC (visual) HIS [2] | rel. activ. in % after 20 min. ([3]; conc. in test 200 μmol/L) | IC50 ([4]; Homo sapiens, SW480, half-maximal inhibition of proliferation, read-out: IC-50 SW-480) | Mean of FSC-H (Log) H15 p27-GFP-clone [5] | rel. activ. in % after 20 min. ([6]; conc. in test 200 μmol/L) | rel. activ. in % after 20 min. ([7]; conc. in test 200 μmol/L) | rel. activ. in % after 20 min. ([3]; conc. in test 100 μmol/L) | rel. activ. in % after 20 min. ([6]; conc. in test 100 μmol/L) | inhibiting effect on the proteasome, compared in words [8] | inhibiting effect on the proteasome, compared in words ([8]; listed as Argyrin Ala alpha) | rel. activ. in % after 20 min. ([7]; conc. in test 100 μmol/L) | inhibiting effect on the proteasome, compared in words ([8]; listed as argyrin Ala beta) | IC-50 SW-480 ([4]; half-maximal inhibition of proliferation)
1 | C=C1NC(=O)[C@@H](C)NC(=O)CNC(=O)[C@H](Cc2c[nH]c3cccc(OC)c23)NC(=O)[C@H](Cc2c[nH]c3ccccc23)NC(=O)c2csc(n2)[C@@H](CO)NC(=O)CN(C)C1=O [Argyrin F] (cyclo([Dha][Sar][X1]W[Trp(4-OMe)]G[dA])) | 0.2 µg/mL (≈ 0.238 µM) | 0.5 µg/mL (≈ 0.595 µM) | 15% | 0.05 µg/mL (≈ 0.0595 µM) | 11.24 | 17% | 32% | – | – | – | – | – | – | –
2 | C=C1NC(=O)[C@@H](C)NC(=O)[C@@H](C)NC(=O)[C@H](Cc2c[nH]c3cccc(OC)c23)NC(=O)[C@H](Cc2c[nH]c3ccccc23)NC(=O)c2csc(n2)[C@@H](CO)NC(=O)CN(C)C1=O [Argyrin ala alpha] (cyclo([Dha][Sar][X1]W[Trp(4-OMe)][dA][dA])) | – | – | – | – | – | – | – | 17% | 11% | higher activities than Argyrin F | slightly less active | 72% | – | –
3 | C=C1NC(=O)[C@@H](C)NC(=O)[C@H](C)NC(=O)[C@H](Cc2c[nH]c3cccc(OC)c23)NC(=O)[C@H](Cc2c[nH]c3ccccc23)NC(=O)c2csc(n2)[C@@H](CO)NC(=O)CN(C)C1=O [Argyrin ala beta] (cyclo(A[dA][Dha][Sar][X1]W[Trp(4-OMe)])) | – | – | – | – | – | – | – | 8% | 7% | higher activities than Argyrin F | – | 26% | stronger inhibiting effect on the proteasome than argyrin F | –
4 | Argyrin B | 12 µg/mL | 12 µg/mL | – | – | 7.60 | – | – | – | – | – | – | – | – | Ca. 0.05 μg/ml
